The subject of experiment [1] is MM cell lines resistant to conventional therapies. Put plainly: Growth inhibition (MTS assay and tritiated-thymidine uptake) in MM cell lines. The class given is cell-based. Particulars: Homo sapiens, 48 h, read-out: median inhibitory concentration, myeloma cell growth. The procedure: (§1) Bortezomib-sensitive (MM.1S) and Bortezomib-resistant (MM.1R) human MM cell lines, as well as RPMI-8226 cells resistant to Doxorubicin (Dox 40), Mitoxantrone (MR20), and Melphalan (LR5), were cultured in RPMI-1640 media (Cellgro, Mediatech, VA) with 10% fetal bovine serum, 2 mmol/L L-glutamine (GIBCO, Grand Island, N.Y.), 100 U/mL penicillin, and […] streptomycin (GIBCO). Drug-resistant cell lines were cultured with either doxorubicin, mitoxantrone, melphalan or bortezomib to confirm their lack of drug sensitivity. MM patient cells were purified (>95% CD138+) by positive selection with anti-CD138 MACS Microbeads (Miltenyi, San Diego, Calif.).
(§2) DNA synthesis was measured by 3H-thymidine (NEN Products, Boston, Mass.) uptake. Cells were pulsed with 3H-thymidine (0.5 μCi/well) during the last 8 hours of 48-hour cultures. All of the experiments were performed in triplicate.
(§3) Cells from 24-, 48- or 72-hour cultures in 200 μL media plus drug were pulsed with 40 μL of 5 mg/mL MTS to each well for the last 4 hours of the cultures. Absorbance was measured at 490 nm using a spectrophotometer (Molecular Devices Corp., Sunnyvale, Calif.).
(In general: Formazan colour is commonly taken as a measure of viable cells.)

For experiment [2], the target named is T1, HDAC6, or tubulin deacetylase (TDAC) (Homo sapiens, UniProt Q9UBN7).
T1 construct: endogenous in cells; host or cells: MM.1S cells
T1 sequence (Q9UBN7 1-1215): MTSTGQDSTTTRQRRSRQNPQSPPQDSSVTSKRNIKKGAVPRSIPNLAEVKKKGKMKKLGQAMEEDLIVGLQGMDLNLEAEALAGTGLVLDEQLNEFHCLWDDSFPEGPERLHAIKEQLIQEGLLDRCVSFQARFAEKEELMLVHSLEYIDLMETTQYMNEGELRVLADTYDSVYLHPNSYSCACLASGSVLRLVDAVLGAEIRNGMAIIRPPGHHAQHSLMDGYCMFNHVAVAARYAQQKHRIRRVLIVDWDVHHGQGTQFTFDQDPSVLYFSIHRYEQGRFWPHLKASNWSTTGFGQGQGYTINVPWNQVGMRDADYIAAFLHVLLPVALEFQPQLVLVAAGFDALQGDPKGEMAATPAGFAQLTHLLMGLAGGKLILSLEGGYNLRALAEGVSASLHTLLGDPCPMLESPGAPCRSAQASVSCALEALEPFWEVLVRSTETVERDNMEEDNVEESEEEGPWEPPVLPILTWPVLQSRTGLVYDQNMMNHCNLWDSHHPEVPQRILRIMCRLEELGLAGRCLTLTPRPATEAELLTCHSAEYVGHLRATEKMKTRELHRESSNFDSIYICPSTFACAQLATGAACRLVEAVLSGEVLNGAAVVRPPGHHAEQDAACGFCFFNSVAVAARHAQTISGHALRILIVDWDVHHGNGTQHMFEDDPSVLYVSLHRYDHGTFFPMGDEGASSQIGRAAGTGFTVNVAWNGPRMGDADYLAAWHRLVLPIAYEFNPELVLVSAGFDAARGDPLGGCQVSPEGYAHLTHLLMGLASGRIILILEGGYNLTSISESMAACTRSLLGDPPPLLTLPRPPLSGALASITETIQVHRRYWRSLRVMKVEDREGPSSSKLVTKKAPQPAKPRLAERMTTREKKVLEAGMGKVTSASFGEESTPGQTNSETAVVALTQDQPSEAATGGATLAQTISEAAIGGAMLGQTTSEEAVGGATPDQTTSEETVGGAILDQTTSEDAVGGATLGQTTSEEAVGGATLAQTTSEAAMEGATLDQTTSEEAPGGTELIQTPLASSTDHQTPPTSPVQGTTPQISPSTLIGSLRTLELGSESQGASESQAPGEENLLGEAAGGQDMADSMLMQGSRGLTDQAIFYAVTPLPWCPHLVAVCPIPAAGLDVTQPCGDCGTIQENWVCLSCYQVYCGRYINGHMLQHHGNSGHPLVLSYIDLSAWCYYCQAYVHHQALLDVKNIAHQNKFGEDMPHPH
The experiment in a line: Inhibition of TDAC (HDAC6, tubulin deacetylase) in MM.1S cells. The experiment is classed as cell-based. Particulars: low nanomolar concentrations. The source says: (§4) Cell lysates were subjected to SDS-PAGE, transferred to polyvinylidene difluoride (PVDF) membrane, and immunoblotted with anti-acetylated histone (Upstate Biotechnology, Lake Placid, N.Y.), anti-p21 antibody (Santa Cruz Biotech, Santa Cruz, Calif.), anti-PARP; anti-caspase-8, anti-caspase-9 and anti-caspase 3 (Cell Signaling, MA); as well as anti-polyubiquitin conjugates, anti-LMP7, anti-β5 (Affiniti, Mamhead, Exeter, Devon, UK). Membranes were stripped and re-probed with anti-tubulin or anti-β-actin (Sigma, St Louis, Mo.) to ensure equivalent protein loading.

The test system of another experiment is MM.1S cells. Put plainly: Western blot of apoptosis and cell cycle markers in MM.1S cells. The class given is cell-based, human.
From the text: as §4
(In general: A western blot detects proteins with antibodies after separation by electrophoresis.)

A further experiment relates to MM cells. Put plainly: Combination with proteasome inhibitor bortezomib on MM cells. The class given is cell-based, human. The procedure: DNA synthesis was measured by 3H-thymidine (NEN Products, Boston, Mass.) uptake. Cells were pulsed with 3H-thymidine (0.5 μCi/well) during the last 8 hours of 48-hour cultures. All of the experiments were performed in triplicate. Statistical significance of differences observed in drug-treated versus control cultures was determined using Student's t test. The minimal level of significance was p<0.05. […] The survival curves for mice were computed using the Kaplan-Meier method. The survival time differences between the control and treated group were compared using a log-rank test. The median survival times were compared using the Fisher-exact test. To compare the rate of tumor growth in the two arms, a linear mixed effect model (random coefficient model) was fitted.

A further experiment has as its system MM patient cells. The experiment in a line: Growth inhibition (MTS assay and tritiated-thymidine uptake) in MM patient cells. The class given is cell-based. The conditions noted are these: Homo sapiens, 48 hours, read-out: median inhibitory concentration, myeloma cell growth. The procedure:
as §1, §2, §3

The test system of experiment [3] is MM.1S cells co-cultured with bone marrow stromal cells. The experiment in a line: MM.1S proliferation in co-culture with bone marrow stromal cells. The experiment is classed as cell-based, human. The procedure: Bone marrow specimens were obtained from patients with MM. Mononuclear cells, separated by FicoII-Hipaque density sedimentation, were used to establish long-term BM cultures. When an adherent cell monolayer had developed, cells were harvested in HBSS containing 0.25% trypsin and 0.02% EDTA and were washed and collected by centrifugation. The BMSCs were then plated onto flat-bottom 96-well plates overnight, and then 3×10^4 mM.1S cells were added for 48 hours. 150 μL of supernatant was removed and cells were pulsed with [3H]thymidine (0.5 μCi/well) during the last 8 hours of 48-hour cultures.

pIC50: −log10 of the molar value.

In the case of `Cc1[nH]c2ccccc2c1CCNCc1ccc(/C=C/C(=O)NO)cc1` [Compound (III), N-hydroxy-3-[4-[[[2-(2-methyl-1H-indol-3-yl)-ethyl]-amino]methyl]phenyl]-2E-2-propenamide], the pIC50 in experiment [1] was above 8.00. Besides, the “inhibition of TDAC” value in experiment [2] is reported as “dose-dependent inhibition”. Also, in the experiment on MM.1S cells, the c-myc expression entry was “down-regulation” and the p21 expression entry is “up-regulation”. For the same molecule, in the experiment on MM.1S cells (20 nM), the “cleavage of caspase 8, caspase 9, caspase 3 and PARP” value was “Significant cleavage”. Besides, in the experiment with MM cells, the “activity in combination with bortezomib” value was “Synergistic activity”. For the same molecule, in the experiment with MM patient cells, the pIC50 was above 8.00. Further, the “MM.1S myeloma cell proliferation” value in experiment [3] is “inhibited”.

For the origin of these results see patent publication US8883842B2, “Use of HDAC inhibitors for the treatment of myeloma” (Novartis AG, priority 2005, dated 2014).
